Measured values as given in ChEMBL document CHEMBL1148176, “Polycyclic guanidine alkaloids from the marine sponge Crambe crambe and Ca++ channel blocker activity of crambescidin 816” (J Nat Prod, 1993).
The source made the active and inactive calls. The calls are words filed in the database; no cut-off is given here.

Columns and labels:
Jejunum [1] = assay: Inhibition of Sprague-Dawley rat jejunum contraction at 0.6 to 6.0 pM; type: functional, tissue-based
Jejunum [2] = assay: Inhibition of acetylcholine-induced contraction in Sprague-Dawley rat jejunum at 1.2 pM pretreated for 3 mins before acetylcholine challenge; type: functional
L-type calcium channel = L-type calcium channel (Mus musculus, UniProt Q01815+Q02789+Q99246+Q9JIS7); assay: Antagonist activity at voltage-dependent L-type calcium channel in mouse neurobalstoma-rat glioma NG 108-15 hybrid cells assessed as inhibition of KCl-induced increase in intracellular calcium level pretreated for 3 mins before KCl challenge; type: functional, cell-based
Jejunum [3] = assay: Inhibition of acetylcholine-induced contraction in Sprague-Dawley rat jejunum at 6.0 pM pretreated for 3 mins before acetylcholine challenge; type: functional
Ephydatia fluviatilis = assay: Inhibition of reaggregation of cells in Ephydatia fluviatilis; type: functional
Jejunum [4] = assay: Inhibition of acetylcholine-induced contraction in Sprague-Dawley rat jejunum pretreated for 3 mins before acetylcholine challenge; type: functional, tissue-based
Ileum = assay: Inhibition of acetylcholine-induced contraction in guinea pig ileum; type: functional, tissue-based; settings: Cavia porcellus
Jejunum [5] = assay: Inhibition of acetylcholine-induced contraction in Sprague-Dawley rat jejunum at 0.6 pM pretreated for 3 mins before acetylcholine challenge; type: functional
[6] = Cytotoxicity against human HCT16 cells; type: functional, cell-based
Poecilia reticulata = assay: Toxicity against Lebistes reticulatus at 0.2 mg/l; type: organism-based; settings: in vivo

SMILES | IC50 (L-type calcium channel) | Activity (Ephydatia fluviatilis) | Activity (Poecilia reticulata) | further results
CC[C@H]1C=CCC[C@]2(C[C@H]3CC[C@]4(O)[C@H](C(=O)OCCCCCCCCCCCCCCCC(=O)N(CCCN)C[C@@H](O)CCN)[C@@]5(CCC[C@@H](C)O5)NC(=[N+]34)N2)O1.[Cl-] [CRAMBESCIDIN 816 HYDROCHLORIDE] | 1.5 ×10⁻⁴ microM | 1.2 mM | Toxic | Activity (Jejunum [1]): inactive; inhibition at 1.2 pM (Jejunum [2]): 25%; Activity (L-type calcium channel; mouse): Dose-dependent effect; inhibition at 6 pM (Jejunum [3]): 30%; Activity (Jejunum [4]): Dose-dependent effect; Activity (Ileum): Active; inhibition at 600 fM (Jejunum [5]): 18%; IC50 [6]: 0.24 µg/mL
CCCCCCCCCCCC1N=C(N)N2CCCC2=C1C(=O)OCCCCNC(=N)N.Cl (stereo not drawn) [CRAMBINE A] | – | 2.3 mM | Toxic | –
CCCCCCCCCCC[C@@H]1N=C(N)N[C@]2(CCCO2)[C@@H]1C(=O)OCCCCCNC(=N)N.Cl [CRAMBINE B] | – | 2 mM | Toxic | –
CCCCCCCCCCCC1N=C(N)NC(CCCO)=C1C(=O)OCCCCCNC(=N)N.Cl (stereo not drawn) [CRAMBINE C1] | – | 2.1 ×10⁻² M | Toxic | –
COC(=O)C1=C(C)NC(C)=C(C(=O)OC)C1c1ccccc1[N+](=O)[O-] [NIFEDIPINE] | 1.2 µM | – | – | –
